Results taken from patent EP0565674B1, “METHOD FOR MEMORY ENHANCEMENT AND QUALITY OF LIFE IMPROVEMENT” (CITY OF HOPE, priority 1991, dated 1993).
Where a name gives a salt, the structure may show the parent alone.

What was measured:
CD-1 male mice [1] = test: T-maze footshock active avoidance training (FAAT), retention after 1 week, well-trained mice, prevention of DMSO-induced amnesia; details: for trials to criterion compared with DMSO alone / saline alone: 3.5X10^-10 mol icv 2-3 min after FAAT, in DMSO, retention tested one week later, groups of 15 mice
Description: (§1) Test Animals. After 1 week in the laboratory, CD-1 male mice obtained from Charles River Breeding Laboratories were caged individually 24-48 hr prior to training and remained singly housed until retention was tested 1 week later. Animal rooms were on a 12-hr light/dark cycle with lights going on at the hour of 0600.
(§2) With the exception of pregnenolone sulfate, all of the substances were dissolved in appropriate amounts of pure DMSO and 2 µl of DMSO alone or containing test substance was injected icv into each mouse after training. Pregnenolone sulfate was dissolved in DMSO and diluted with physiological saline to a final concentration of 1% DMSO or less in saline, and the results of, injections of 2 µl of solutions containing pregnenolone sulfate were compared with those obtained with 2 µl of such saline solutions alone.
(§3) Apparatus, Training and Testing Procedures. The T-maze used for footshock active avoidance training (FAAT) consisted of a black plastic alley (46 cm long) with a start box at one end and two goal boxes (17.5 cm long) at the other. The start box was separated from the alley by a plastic guillotine door that prevented movement down the alley until training began. The alley was 12.5 cm deep and 9.8 cm wide. An electrifiable stainless steel rod floor ran throughout the maze.
(§4) Mice were not permitted to explore the maze before training. A block of training trials began when a mouse was placed in the start box. The guillotine door was raised and a muffled doorbell-type buzzer sounded simultaneously; footshock was 5 sec later through a scrambled grid floor shocker (Colbourn Instruments, model E13-08). The goal box first entered during the first set of trials was designated as "incorrect", and footshock was continued until the mouse entered the other goal box, which in all subsequent trials was designated "correct" for the particular mouse. At the end of each group of trials, the mouse was removed to its home cage.
As training proceeded, a mouse made one of two types of responses. A response latency longer than 5 sec was classed as an escape from the footshock. A response latency less than or equal to 5 sec was considered an avoidance, since the mouse avoided receiving a footshock. Two exclusion criteria were applied to reduce learning variability among mice, as follows. On the first training trials, mice with escape latencies greater than 20 sec were discarded. Mice not having at least one errorless escape latency between 1.5 and 3.5 sec on training trials 3 or 4 were excluded. The total exclusions were fewer than 15%. Mice received five such training trials. One week after training and post-trial administration of vehicle alone or vehicle containing test substance, T-maze training was resumed until each mouse made five avoidance responses in six consecutive training trials (trials to criterion). The recall score was taken to be the percentage of tested mice remembering original training.
In these instances, training was performed under conditions that tend to maximize learning (sound intensity, 65 decibels; footshock current, 0.35 mA; intertrial interval, 45 s).
Surgical Procedure in Preparation for Intracerebroventricular (icv) Administration of Substances. Icv injection was the mode of administration of test substances because this eliminates problems of differential penetration of the blood-brain barrier. The following procedure was performed 24-48 hr prior to training.

CD-1 male mice [2] = test: T-maze footshock active avoidance training (FAAT), retention after 1 week, weakly trained mice, memory enhancement
Description: as §1, §2, §3, §4
As training proceeded, a mouse made one of two types of responses. A response latency longer than 5 sec was classed as an escape from the footshock. […]

| Structure (SMILES) | trials to criterion compared with DMSO alone / saline alone (CD-1 male mice [1]) | also measured |
| --- | --- | --- |
| C[C@]12CCC(=O)C=C1CC[C@@H]1[C@@H]2CC[C@]2(C)C(=O)CC[C@@H]12 [androstenedione, 4,androsten-3,17-dione] | significantly fewer trials to criterion than mice receiving DMSO alone |  |
| C[C@]12CC[C@H]3[C@@H](CCC4=CC(=O)CC[C@@]43C)[C@@H]1CC[C@@H]2O [testosterone, 4-androsten-17β-ol-3-one] | significantly fewer trials to criterion than mice receiving DMSO alone |  |
| C[C@]12CC[C@@H]3c4ccc(O)cc4CC[C@H]3[C@@H]1CC[C@@H]2O [estradiol, 1,3,5(10)-estratrien-3,17β-diol] | significantly different from those obtained with DMSO alone and significantly greater than those receiving saline alone |  |
| C[C@]12CC[C@H](O)CC1=CC[C@@H]1[C@@H]2CC[C@]2(C)C(=O)CC[C@@H]12 [DHEA, 5-androsten-3β-ol-17-one] | significantly fewer trials to criterion than mice receiving DMSO alone |  |
| C[C@]12CC[C@H](OS(=O)(=O)O)CC1=CC[C@@H]1[C@@H]2CC[C@]2(C)C(=O)CC[C@@H]12 [DHEAS, dehydroepiandrosterone sulfate] | significantly fewer trials to criterion than mice receiving DMSO alone |  |
| CC(=O)C1CCC2C3CC=C4CC(OS(=O)(=O)O)CCC4(C)C3CCC12C (stereo not drawn) [pregnenolone sulfate, 5-pregnen-3β-ol-20-one sulfate, sodium salt] |  | potency relative to DHEA (CD-1 male mice [2]; memory enhancement in mice): ~1000 times; potency relative to pregnenolone (CD-1 male mice [2]; memory enhancement in mice): approximately 10 times |
| C[C@]12CC[C@@H]3c4ccc(O)cc4CC[C@H]3[C@@H]1CCC2=O [estrone, 1,3,5(10)-estratrien-3-ol-17-one] | significantly different from those obtained with DMSO alone and significantly greater than those receiving saline alone |  |
| C[C@]12CCC(=O)C=C1CC[C@@H]1[C@@H]2[C@@H](O)C[C@]2(C=O)[C@@H](C(=O)CO)CC[C@@H]12 [aldosterone, 4-pregnen-11β,21-diol-3,18,20-trione] | significantly fewer trials to criterion than mice receiving DMSO alone |  |
| C[C@]12CCC(=O)C[C@@H]1CC[C@@H]1[C@@H]2CC[C@]2(C)[C@@H](O)CC[C@@H]12 [dihydrotestosterone, 5α-androstan-17β-ol-3-one] | significantly fewer trials to criterion than mice receiving DMSO alone |  |
| CC(=O)[C@H]1CC[C@H]2[C@@H]3CCC4=CC(=O)CC[C@]4(C)[C@H]3CC[C@]12C [progesterone, 4-pregnen-3,20-dione] | significantly different from those obtained with DMSO alone and significantly greater than those receiving saline alone |  |
| CC(=O)[C@H]1CC[C@H]2[C@@H]3CC=C4C[C@@H](O)CC[C@]4(C)[C@H]3CC[C@]12C [pregnenolone, 5-pregnen-3β-ol-20-one] | significantly fewer trials to criterion than mice receiving DMSO alone | trials to criterion (CD-1 male mice [2]; weakly trained mice, 3.5X10^-15 mol per mouse icv, p < 0.05 vs vehicle controls (9.30±0.47), mean ± SEM): 7.70±0.55; potency on a molar basis relative to the other two substances tested (DHEA, testosterone) (CD-1 male mice [1]; from dose-response curves): at least 100 times |
